From US20100324017A1, “ACYLGUANIDINE DERIVATIVE” (priority 2007, published 2010) come the findings set out here.

This assay concerns PCP-induced prepulse inhibition (PPI) disorder. Nature of the assay: Disorder of PCP-induced prepulse inhibition (PPI) in a rat. The class given is in vivo. Particulars: dose 10 mg/kg, PCP 1 mg/kg s.c., % PPI. As to the method: An Improvement Effect for a Disorder of PCP-Induced Prepulse Inhibition (PPI) in a Rat
A startle amplitude occurs in humans to which an sound stimulus has been given, but in healthy human, this startle amplitude is inhibited by the giving of a weak sound stimulus that precedes the sound stimulus. For a patient with schizophrenia, the inhibitory function similarly declined. It is known that when a rat is administered with PCP (phencyclidine), there is a symptom similar to the negative symptom of schizophrenia in humans. Using this model, the improvement effect of the compound (I) for the information processing disorder included in cognitive impairment of schizophrenia was evaluated.
Species: Male Wistar rat/number of the animals (number of animals per group): 12 animals per group
Startle amplitude measuring device for small animals: an SR-LAB ABS system (manufactured by San Diego Instruments)
An animal holder, to which a Plexiglas-made cylinder for animal storage having a diameter of 8.2 cm was attached, was positioned in the upper part of a Plexiglas-made frame in a measurement box. In the measurement box, a sound-insulating treatment and ventilation (FAN) were carried out. Sound was administered by a speaker attached to the 24 cm upper part of the cylinder. The movement of the animals in the cylinder was detected by a transducer attached in the lower part of the frame and recorded by a microcomputer via an interface.
The experiment was initiated after the animals were put into the chamber for measurement and had spent 10 minutes adapting to the measurement environment. Basically, at 35 minutes after the compound to be tested was orally administered, 1 mg/kg of PCP was subcutaneously administered (1 ml/kg). Five minutes later, the rats were put into a chamber for measurement, allowed to adapt for 10 minutes, and the measurement was then initiated. A white noise of 65 dB (for all frequencies, a disordered noise having a constant energy per unit band) used as a background noise was always played through the break periods and the sessions. The three types of trials as shown below were carried out in a random order 10 times for each type with 30 times in total. Each trial was carried out at a pseudo-random interval of 20 to 60 seconds with an average of 40 seconds. A pulse was defined as a white noise of 120 dB, 20 msec, and a prepulse was defined as a white noise of 70, 80 dB, 20 msec.
The startle amplitude of the animal was measured for 100 msec from the initiation of the pulse, and the maximum value was taken as a “maximum startle amplitude (Vmax))”. The “maximum startle amplitude” for the ten times for each of the three types of trials were averaged, and taken as a “startle amplitude (simply referred to as SA)” under the stimulation condition.
The % prepulse inhibition (% PPI) was calculated in the following equation in the PP80 & P trial of 3) above.
% Prepulse inhibition (% PPI)=(Startle amplitude at P-alone trial (SA)−Startle amplitude (SA) at a PP80 & P trial)/Startle amplitude at P alone trial×100
The measured value was expressed as an average value (mean±SE). First, the startle amplitudes (SA) were statistically analyzed. […] For the measured data of % PPI, the normal group and the control group (the group administered with PCP) were compared by a Student t-test, and for the control group and the group administered with the compound to be tested were compared using a Dunnett evaluation. […] The effect of the compound to be tested was assessed with % PPI.

In the case of `OCCOCCN1CCN(C2=Nc3ccccc3Sc3ccccc32)CC1` [quetiapine, reference compound], the “improvement of the PCP-induced PPI” value is listed as “significantly improved”.
